The results in this text go back to publication PMC10707992 (2023).

The subject of the test is FAM-Apt (DNA, aptamer) ATCACGTGTTGTCTCTCTGTGTCTCGTG
As to the kind of experiment: FRET strand-displacement assay (fluorescence recovery). The following applies: 20 mM Mg-acetate, 100 mM Na-acetate; Tris-acetate pH 8.5, 25 °C; 3'-RTQ1 cDNA CAGAGAGAC not displaced; tested at 1 µM.

The structures appear in SMILES notation.

In the case of `C[C@@H]1Cc2c(Cl)cc(C(=O)N[C@@H](Cc3ccccc3)C(=O)O)c(O)c2C(=O)O1`, the binding result was “no”. For `C[C@H]1CCCC(=O)CCC/C=C/c2cc(O)cc(O)c2C(=O)O1`, the binding result is recorded as “no”.
